# Assay results as given in ChEMBL document CHEMBL4000234, “Synthesis and antiviral evaluation of novel heteroarylpyrimidines analogs as HBV capsid effectors” (Bioorg Med Chem Lett, 2017).
# How the values were obtained:
# Hepatitis B virus = assay: Antiviral activity against HBV infected in human HepAD38 cells assessed as inhibition of DNA replication after 5 days by RT-PCR method; assay type: functional, cell-based; conditions: HePAD38, 120 h
# Vero = assay: (§1) Cytotoxicity against African green monkey Vero cells assessed as growth inhibition by CellTiter 96 non-radioactive cell proliferation colorimetric assay; assay type: cell-based; conditions: chlorocebus sabaeus, vero
# PBMC = assay: (§2) Cytotoxicity against human PBMC assessed as growth inhibition by CellTiter 96 non-radioactive cell proliferation colorimetric assay; assay type: cell-based
# HepG2 = assay: (§3) Cytotoxicity against human HepG2 cells assessed as growth inhibition by CellTiter 96 non-radioactive cell proliferation colorimetric assay; assay type: cell-based; conditions: hepg2
# CCRF-CEM = assay: (§4) Cytotoxicity against human CEM cells assessed as growth inhibition by CellTiter 96 non-radioactive cell proliferation colorimetric assay; assay type: cell-based; conditions: ccrf-cem
# [1] = as §1; assay type: cell-based; conditions: chlorocebus sabaeus, Vero cells
# [2] = as §2; assay type: cell-based
# [3] = as §3; assay type: cell-based; conditions: HepG2 cells
# [4] = as §4; assay type: cell-based, CCRF-CEM; conditions: CEM cells (CCRF-CEM)
Compound,EC50 (Hepatitis B virus),CC50 (Vero),CC50 (PBMC),CC50 (HepG2),CC50 (CCRF-CEM),CC50 [1],CC50 [2],CC50 [3],CC50 [4]
COC(=O)C1=C(Cn2cc[n+](C)c2)NC(c2ccccn2)=NC1c1ccc(F)cc1Cl (stereo unspecified),> 10 µM,> 100 µM,44 µM,> 100 µM,23 µM,–,–,–,–
CC1=C(C(=O)SC(C)C)C(c2ccc(F)cc2Cl)N=C(c2ccccn2)N1 (stereo unspecified),> 10 µM,40 µM,31 µM,> 100 µM,13 µM,–,–,–,–
CC(=O)NC1=C(C)NC(c2ccccn2)=NC1c1ccc(F)cc1Cl (stereo unspecified),> 10 µM,> 100 µM,> 100 µM,80 µM,> 100 µM,–,–,–,–
CCS(=O)(=O)CC1=C(C(=O)OC)C(c2ccc(F)cc2Cl)N=C(c2ccccn2)N1 (stereo unspecified),> 10 µM,> 100 µM,> 100 µM,> 100 µM,39 µM,–,–,–,–
CC1(C)CC(=O)c2c(Cc3ccc(F)cc3Cl)nc(-c3cccnc3)nc2C1,> 10 µM,≥ 100 µM,> 100 µM,> 100 µM,86 µM,–,–,–,–
CC1=C(C(=O)NS(=O)(=O)N(C)C)C(c2ccc(F)cc2Cl)N=C(c2ccccn2)N1 (stereo unspecified),> 10 µM,≥ 100 µM,> 100 µM,> 100 µM,> 100 µM,–,–,–,–
COC(=O)C1=C(C)NC(c2ccccn2)=NC1Cc1ccccc1 (stereo unspecified),> 10 µM,> 100 µM,52 µM,> 100 µM,61 µM,–,–,–,–
CCCC[n+]1ccn(CC2=C(C(=O)OC)C(c3ccc(F)cc3Cl)N=C(c3ccccn3)N2)c1 (stereo unspecified),> 10 µM,> 100 µM,20 µM,14 µM,3 µM,–,–,–,–
Fc1ccc(C2N=C(c3ccccn3)NC(CN3CCOCC3)=C2I)c(Cl)c1 (stereo unspecified),4 µM,45 µM,> 100 µM,> 100 µM,11 µM,–,–,–,–
COC(=O)c1c(Cc2ccccc2)nc(-c2ccccn2)nc1CN1CCN(C)CC1,> 10 µM,> 100 µM,> 100 µM,> 100 µM,86 µM,–,–,–,–
CC1(C)CC(=O)c2c(Cc3ccc(F)cc3Cl)nc(-c3ccncc3)nc2C1,> 10 µM,10 µM,> 100 µM,≥ 100 µM,≥ 100 µM,–,–,–,–
CCOP(=O)(CC1=C(C(=O)OC)C(c2ccc(F)cc2Cl)N=C(c2ccccn2)N1)OCC (stereo unspecified),> 10 µM,43 µM,65 µM,> 100 µM,15 µM,–,–,–,–
COC(=O)C1=C(CSc2ccccc2)NC(c2ccccn2)=NC1Cc1ccccc1 (stereo unspecified),> 10 µM,> 100 µM,> 100 µM,96 µM,5 µM,–,–,–,–
COC(=O)C1=C(CN=[N+]=[N-])NC(c2ccccn2)=NC1c1ccc(F)cc1Cl (stereo unspecified),5.3 µM,56 µM,> 100 µM,> 100 µM,> 100 µM,–,–,–,–
CC1(C)CC(=O)c2c(Cc3ccc(F)cc3Cl)nc(-c3ccccn3)nc2C1,> 10 µM,29 µM,69 µM,42 µM,9 µM,–,–,–,–
CC1(C)CC(=O)c2c(Cc3ccccc3)nc(-c3ccccn3)nc2C1,> 10 µM,53 µM,43 µM,47 µM,21 µM,–,–,–,–
CC1=C(I)C(c2ccc(F)cc2Br)N=C(c2nccs2)N1 (stereo unspecified),7.1 µM,> 100 µM,80 µM,> 100 µM,33 µM,–,–,–,–
CC1=C(Br)C(c2ccc(F)cc2Cl)N=C(c2ccccn2)N1 (stereo unspecified),5.2 µM,16 µM,> 100 µM,79 µM,23 µM,–,–,–,–
CCOC(=O)C1=C(CN2CCOCC2)NC(c2nccs2)=NC1c1ccc(F)cc1Br (racemic),0.3 µM,–,–,–,–,–,–,–,–
COC(=O)C1=C(CN2CCOCC2)NC(c2ccccn2)=NC1c1ccc(F)cc1Cl (racemic),0.45 to 0.5 µM,> 100 µM,> 100 µM,> 100 µM,> 100 µM,–,–,–,–
Nc1ccn([C@@H]2CS[C@H](CO)O2)c(=O)n1 [LAMIVUDINE],0.04 µM,–,–,–,–,> 100 µM,> 100 µM,10 to 100 µM,> 100 µM

# Second part, led by results:
EC50 (Hepatitis B virus),Compound,CC50 (Vero),CC50 (PBMC),CC50 (HepG2),CC50 (CCRF-CEM),CC50 [1],CC50 [2],CC50 [3],CC50 [4]
> 10 µM,COC(=O)c1c(CSc2ccccc2)nc(-c2ccccn2)nc1Cc1ccccc1,12 µM,65 µM,> 100 µM,9 µM,–,–,–,–
> 10 µM,COC(=O)c1c(C)nc(-c2ccccn2)nc1Cc1ccccc1,61 µM,67 µM,41 µM,4 µM,–,–,–,–
> 10 µM,COC(=O)C1=C(CN2CCN(C)CC2)NC(c2ccccn2)=NC1Cc1ccccc1 (stereo unspecified),76 µM,> 100 µM,14 µM,17 µM,–,–,–,–
4.1 µM,CC1=C(I)C(c2ccc(F)cc2Cl)N=C(c2ccccn2)N1 (stereo unspecified),29 µM,80 µM,> 100 µM,74 µM,–,–,–,–
> 10 µM,CC1=C(C(=O)OCC(F)(F)F)C(c2ccc(F)cc2Cl)N=C(c2ccccn2)N1 (stereo unspecified),65 µM,> 100 µM,> 100 µM,4 µM,–,–,–,–
> 10 µM,CC1=C(Cl)C(c2ccc(F)cc2Cl)N=C(c2ccccn2)N1 (stereo unspecified),13 µM,> 100 µM,98 µM,44 µM,–,–,–,–
> 10 µM,COCCOCc1nc(-c2ccccn2)nc(Cc2ccccc2)c1C(=O)OC,87 µM,99 µM,≥ 100 µM,55 µM,–,–,–,–
> 10 µM,COC(=O)c1c(Cc2ccc(F)cc2Cl)nc(-c2ccccn2)nc1CN1CCOCC1,71 µM,34 µM,69 µM,11 µM,–,–,–,–
5.7 µM,Fc1ccc(C2N=C(c3nccs3)NC(CN3CCOCC3)=C2I)c(Br)c1 (stereo unspecified),> 100 µM,75 µM,> 100 µM,33 µM,–,–,–,–
> 10 µM,COC(=O)C1=C(CS(=O)(=O)Cc2ccc(C)cc2)NC(c2ccccn2)=NC1c1ccc(F)cc1Cl (stereo unspecified),≥ 100 µM,67 µM,> 100 µM,47 µM,–,–,–,–
> 10 µM,CC(=O)NC1=C(CN2CCOCC2)NC(c2ccccn2)=NC1c1ccc(F)cc1Cl (stereo unspecified),18 µM,28 µM,> 100 µM,69 µM,–,–,–,–
> 10 µM,COC(=O)c1c(Cc2ccccc2)nc(-c2ccccn2)nc1CN1CCOCC1,59 µM,81 µM,> 100 µM,2 µM,–,–,–,–
> 10 µM,CC1(C)CC(=O)C2=C(C1)NC(c1cccnc1)=NC2c1ccc(F)cc1Cl (racemic),> 100 µM,> 100 µM,> 100 µM,> 100 µM,–,–,–,–
